From patent US20180055848A1 (Board of Supervisors of Louisiana State University and …, priority 2015, published 2018)
Like-named read-outs stand apart in the source and are kept apart here.

What was measured:
adults = conditions: after 6 months; cited from earlier work
[1] = tested on: Male Sprague-Dawley rats fed a high fat diet; experiment: Example 6: lean and fat mass in rats, 8 weeks; assay type: in vivo, rat; conditions: i.p. twice a day, albuterol 0.125 mg/kg, caffeine 3.12 mg/kg
Description: (§1) The Pennington Biomedical Research Center Animal Care and Use Committee approved the animal protocols. […] Male Sprague-Dawley rats (Harlan, Inc., Indianapolis, Ind., 8-9 weeks old) were fed a high fat diet (60% calories from fat, D12492, Research Diets, New Brunswick, N.J.) for 4 weeks. […] All treatments were administered by intraperitoneal injection twice a day. […] Body composition was measured by Nuclear Magnetic Resonance (Minispec LF90 NMR analyzer, Bruker Optics, Billerica, Mass.). Weight and food intake were recorded every 2 days. […] Total activity was measured with a Phenomaster system (TSE Systems, Chesterfield Mo.). Chambers had evenly spaced infrared beam grids along X, Y, and Z axes; the system sensed and quantified total beam breaks caused by movements of the animal.

[2] = tested on: Male Sprague-Dawley rats fed a high fat diet; experiment: Example 5: weight gain, body composition and metabolic chamber in rats, 4 weeks; assay type: in vivo, rat
Description: as §1

[3] = tested on: lean adults and post-obese adults; conditions: 100 mg of caffeine, cited from earlier work
healthy adults = experiment: Metabolic rate in humans (indirect calorimetry, crossover study)
[4] = tested on: Differentiated human adipocytes; experiment: Lipolysis assay (glycerol release) in cultured adipocytes; assay type: cell-based; conditions: 3 hours
Description: Primary human adipose tissue was obtained from patients undergoing liposuction, paniculectomy, or bariatric surgery. Tissue was processed by […]) to isolate and cryopreserve pre-adipocytes. At the time of the assay, pre-adipocytes were differentiated into adipocytes. Differentiated human adipocytes adherent to the bottom of a 96-well plate were washed and treated with media containing one of ten treatments: […] After incubation, a 50 μL aliquot was removed and combined with 50 μL glycerol reagent, in a colorimetric assay based on the amount of glycerol released during incubation with test compounds. Absorbance was measured at 540 nm, and results were calibrated against a standard curve. Eight replicates were conducted for each treatment.

## CCCCCCCCCCC[C@@H](C[C@@H]1OC(=O)[C@H]1CCCCCC)OC(=O)[C@H](CC(C)C)NC=O [Orlistat]
adults
  weight loss: about 2.8%
  weight loss attributable to fat loss: 2.1%
  weight loss attributable to reduction in lean tissue: 0.7%

## CC(C)(C)NCC(O)c1ccc(O)c(CO)c1 (stereo not shown) [albuterol, albuterol (salbutamol)]
[1]; p=0.004, n=30
  fat mass gained, week 8: 20.1 g
[1]; p=0.03, n=30
  lean mass gained by week 8: 60.3 g
[2]; 4 weeks, i.p. twice a day, albuterol 0.125 mg/kg, caffeine 3.12 mg/kg, p<0.001
  additional lean mass gained compared to the saline control group: 16.6 g
[2]; 4 weeks, i.p. twice a day, albuterol 0.125 mg/kg, caffeine 3.12 mg/kg, p=0.04
  weight gain compared to the saline control group: gained significantly more weight
[2]; albuterol 0.125 mg/kg i.p. twice a day, p=0.07
  energy expenditure during the dark phase: trend towards increased energy expenditure

## Cn1c(=O)c2c(ncn2C)n(C)c1=O [caffeine]
[3]
  increase in resting metabolic rate: 3-4%
[3]; lean adults
  increase in resting metabolic rate: 150 kcal/day
[3]; post-obese adults
  increase in resting metabolic rate: 80 kcal/day
Healthy adults; 100 mg caffeine alone, oral
  increased energy expenditure (the delta): 37 kcal
Healthy adults; all dosages, single oral dose, p<0.02 to p<0.001, n=8
  energy expenditure over the baseline metabolic rate: significant increases
[4]; caffeine 10 μg/mL, p=0.83
  increase in lipolysis over buffer-treated cells: exception
[2]; 4 weeks, i.p. twice a day, p=0.006
  fat accretion: reduced fat accretion

## CC(C)NCC(O)c1ccc(O)c(O)c1 (stereo not shown) [isoproterenol, Isoproterenol]
[4]; Isoproterenol 1 μM positive control, p<0.001
  increase in lipolysis: ~90%
